Reference: patent publication US5859037A, “Sulfonylurea-glitazone combinations for diabetes” (Warner-Lambert Company, priority 1997, dated 1999)
Values joined by “and” are separate entries in the source; they are usually repeats but may differ in a detail not shown here. Identical values can stand only once. “Also recorded” adds a separate entry of the source.

Tests used:
Assay type in all cases: in vivo, patients
[1] = Safety: adverse events and clinical laboratory measurements
Description: A complete physical examination and ECG were performed during screening and at the end of the study. Clinical laboratory parameters and vital signs including blood pressure were monitored throughout the study for safety reasons. Adverse events were recorded during clinic visits and evaluated by the investigator for intensity and relationship to study drug. Reduction in the daily dose of micronized glyburide could occur in cases of documented hypoglycemia.
All patients randomized to treatment were included in all safety evaluations.
Hypoglycemia, defined as an FSG <50 mg/dL (verified laboratory value), was to be recorded as an adverse event.
Adverse events that were treatment emergent (not present at baseline) are summarized in the following section using a modified COSTART dictionary. If, however, an adverse event present at baseline increased in intensity or frequency during treatment, the event was included in the summaries. Each patient reporting an adverse event was counted only once for that event regardless of the number of times the adverse event was reported. Associated adverse events were those considered by the investigator to be possibly, probably, or definitely related to study therapy.
Baseline clinical laboratory parameters were compared with values at the end of the study (last visit) to identify any abnormal trends. The percent of patients with increases or decreases in laboratory values were calculated based on the number of patients at risk for changes outside of the reference range; i.e., patients with low or high values at baseline were not considered at risk for a decrease or increase, respectively.
Laboratory results were then reviewed for these particular patients to determine which patients actually had clinically important changes in a given laboratory parameter.

[2] = Body weight in clinical study; settings: Month 12; for Body weight, Adjusted Mean Change From Baseline (SE): ITT; for mean decrease in body weight from baseline: monotherapy (troglitazone: range over doses)
Source text: This was a 12-month, double-blind, randomized, parallel-group, active-control, multicenter study design (FIG. 1). […] Patients were instructed to fast overnight prior to visits requiring specimen collection.

[3] = test system: non-insulin dependent diabetes mellitus (NIDDM); experiment: Patient disposition (withdrawal, completion)
Source text: This was a 12-month, double-blind, randomized, parallel-group, active-control, multicenter study design (FIG. 1). […] Patients could withdraw voluntarily at any time during the study or be withdrawn by the investigator because of significant adverse events or deterioration in health, poor compliance, pregnancy, or prolonged symptomatic hyperglycemia or persistent worsening or failure to improve glycemic control as monitored by FSG.

[4] = test system: total insulin and C-peptide; experiment: Fasting total insulin and C-peptide in 52-week clinical study; settings: for C-Peptide, Adjusted Mean Change From Baseline (SE) / Total Insulin, Adjusted Mean Change From Baseline (SE) / C-Peptide, Adjusted Mean Difference From Glyburide / Total Insulin, Adjusted Mean Difference From Glyburide: ITT, Week 52; for C-Peptide, Adjusted Mean Difference From Glyburide / Total Insulin, Adjusted Mean Difference From Glyburide: *p ≤ 0.05
Description: This was a 12-month, double-blind, randomized, parallel-group, active-control, multicenter study design (FIG. 1). […] Secondary efficacy parameters included markers of glycemic homeostasis (insulin and C-peptide) and markers of lipid metabolism (total cholesterol, total triglycerides, HDL, VLDL, LDL (measured), free fatty acids, Lp(a), Apo A1, and Apo B). Efficacy analysis was performed on 2 patient populations, intent-to-treat and completers. […] Patients withdrawing from the study before Week 52 were included in the analysis using the LOCF procedure; the last measurement on treatment was substituted for the missing Week 52 measurement. The intent-to-treat patient sample was the primary sample for assessing efficacy. Completers comprised patients in the intent-to-treat sample who completed Week 52. The analysis of change from baseline to Week 52 was performed using analysis of covariance (ANCOVA). The primary model included effects due to treatment and center and baseline as covariate. Treatment-by-baseline and treatment-by-center interactions were also examined in supplemental models.

[5] = glyburide monotherapy (active control)
[6] = troglitazone 200 mg, or 200 mg/12 mg in combination
[7] = troglitazone 400 mg, or 400 mg/12 mg in combination
[8] = troglitazone 600 mg, or 600 mg/12 mg in combination
[9] = Week 52, compared with glyburide

In the case of `COc1ccc(Cl)cc1C(=O)NCCc1ccc(S(=O)(=O)NC(=O)NC2CCCCC2)cc1` [Glyburide], the “associated adverse events, incidence” value ([1]; overall, all doses) is reported as 10%, the “patients with adverse events” value ([1]; overall, all doses) is reported as 90% and the “Body weight, Adjusted Mean Change From Baseline (SE)” value ([2]; glyburide (active control)) is reported as -1.3 lbs. For the same compound, the “mean decrease in body weight from baseline” value [2] was 1 lbs, the “Withdrawn, Adverse Event, Number (%) of Patients” value ([3]; glyburide monotherapy) was 6 (7.6) Number (%) of Patients and the “Withdrawn, Lack of Efficacy, Number (%) of Patients” value (“Withdrawn, Lack … (%) of Patients” below) ([3]; glyburide monotherapy) was 20 (25.3) Number (%) of Patients. For the same compound, the “withdrawal for lack of efficacy” value ([3]; glyburide monotherapy) was “Twenty-five”, the “C-Peptide, Adjusted Mean Change From Baseline (SE)” value [4, 5] was -0.67 (0.07) ng/mL and the “Total Insulin, Adjusted Mean Change From Baseline (SE)” value [4, 5] was -1.45 (1.39) μIU/mL.
In the case of `Cc1c(C)c2c(c(C)c1O)CCC(C)(COc1ccc(CC3SC(=O)NC3=O)cc1)O2` (centres unmarked) [Troglitazone], the “patients with mildly elevated liver enzymes (<3×upper normal limit) at end of study” value ([1]; 200 mg monotherapy) is reported as “one”, the “adverse event profile versus glyburide monotherapy (result in words)” value ([1]; human, in vivo) is reported as “Most adverse events occurred at the lower incidence in patients treated with troglitazone monotherapy compared with the patients treated with glyburide monotherapy” and the “hematological parameters (result in words)” value ([1]; human, in vivo) is reported as “no patient experienced clinically important decreases in any hematological parameter that can be directly attributable to troglitazone”. For the same compound, the “patients with adverse events” value ([1]; overall, all doses) was 70%, the “patients with mildly transient decreases in hemoglobin/hematocrit which returned to baseline” value ([1]; remaining on drug, mono: two on 400 mg, one on 600 mg, combination: three on 400 mg/12 mg, one on 600 mg/12 mg) was 3 patients and the “tolerability (result in words)” value ([1]; throughout the study) was “well-tolerated throughout the study; also recorded: well-tolerated during the study”. For the same compound, the “Body weight, Adjusted Mean Change From Baseline (SE)” value ([2]; troglitazone 200 mg, or 200/12 mg in combination) was -6.9 lbs, the “Body weight, Adjusted Mean Change From Baseline (SE)” value ([2]; troglitazone 400 mg, or 400/12 mg in combination) was -3.9 lbs and the “Body weight, Adjusted Mean Change From Baseline (SE)” value ([2]; troglitazone 600 mg, or 600/12 mg in combination) was -0.8 lbs. The “mean decrease in body weight from baseline” value [2] was 1 to 7 lbs, the “withdrawal for lack of efficacy” value ([3]; 200 mg troglitazone) was ~60% and 55% and the “Withdrawn, Adverse Event, Number (%) of Patients” value [3, 6] was 6 (7.7) Number (%) of Patients. The “Withdrawn, Lack … (%) of Patients” value [3, 6] was 43 (55.1) Number (%) of Patients, the “Withdrawn, Adverse Event, Number (%) of Patients” value [3, 7] was 7 (8.6) Number (%) of Patients and the “Withdrawn, Lack … (%) of Patients” value [3, 7] was 32 (39.5) Number (%) of Patients. The “Withdrawn, Adverse Event, Number (%) of Patients” value [3, 8] was 6 (7.7) Number (%) of Patients, the “Withdrawn, Lack … (%) of Patients” value [3, 8] was 34 (43.6) Number (%) of Patients and the “C-Peptide, Adjusted Mean Change From Baseline (SE)” value [4, 6] was -0.96 (0.07) ng/mL. The “Total Insulin, Adjusted Mean Change From Baseline (SE)” value [4, 6] was -8.41 (1.39) μIU/mL, the “C-Peptide, Adjusted Mean Difference From Glyburide” value [4, 6] was 0.29 ng/mL and the “Total Insulin, Adjusted Mean Difference From Glyburide” value [4, 6] was -6.96 μIU/mL. The “C-Peptide, Adjusted Mean Change From Baseline (SE)” value [4, 7] was -0.78 (0.07) ng/mL, the “Total Insulin, Adjusted Mean Change From Baseline (SE)” value [4, 7] was -5.90 (1.40) μIU/mL and the “C-Peptide, Adjusted Mean Difference From Glyburide” value [4, 7] was -0.11 ng/mL. For the same compound, the “Total Insulin, Adjusted Mean Difference From Glyburide” value [4, 7] was -4.44 μIU/mL, the “C-Peptide, Adjusted Mean Change From Baseline (SE)” value [4, 8] was -1.01 (0.08) ng/mL and the “Total Insulin, Adjusted Mean Change From Baseline (SE)” value [4, 8] was -11.53 (1.42) μIU/mL. For the same compound, the “C-Peptide, Adjusted Mean Difference From Glyburide” value [4, 8] was 0.34 ng/mL, the “Total Insulin, Adjusted Mean Difference From Glyburide” value [4, 8] was -10.07 μIU/mL and the “C-peptide (result in words)” value [4, 9] was “Significant (p≤0.05) decreases in C-peptide were observed for troglitazone monotherapy only (200 and 600 mg troglitazone)”. The “total insulin (result in words)” value [4, 9] was “significant (p≤0.05) decrease in total insulin compared with glyburide” and the “total insulin, completers (result in words)” value ([4]; completers, 400 and 600 mg troglitazone, p<0.05 vs glyburide) was “decreases in total insulin that were significantly different from glyburide (p<0.05)”.
